The record followed here is patent publication US11834454B2, “Alkynylphenylbenzamide compounds and applications thereof” (SHENZHEN NEWDEL BIOTECH CO., LTD., priority 2021, dated 2023).

In one experiment the target is T1, TRKB (Homo sapiens, UniProt Q16620).
T1 construct: purchased American Life Technologies PV3616
The experiment can be described thus: Z'-LYTE kinase activity detection, TRKB. It is filed as biochemical.

A further experiment deals with T2, TRKA (Homo sapiens, UniProt P04629).
T2 construct: purchased American Life Technologies PV3144
T2 sequence (P04629 33-796): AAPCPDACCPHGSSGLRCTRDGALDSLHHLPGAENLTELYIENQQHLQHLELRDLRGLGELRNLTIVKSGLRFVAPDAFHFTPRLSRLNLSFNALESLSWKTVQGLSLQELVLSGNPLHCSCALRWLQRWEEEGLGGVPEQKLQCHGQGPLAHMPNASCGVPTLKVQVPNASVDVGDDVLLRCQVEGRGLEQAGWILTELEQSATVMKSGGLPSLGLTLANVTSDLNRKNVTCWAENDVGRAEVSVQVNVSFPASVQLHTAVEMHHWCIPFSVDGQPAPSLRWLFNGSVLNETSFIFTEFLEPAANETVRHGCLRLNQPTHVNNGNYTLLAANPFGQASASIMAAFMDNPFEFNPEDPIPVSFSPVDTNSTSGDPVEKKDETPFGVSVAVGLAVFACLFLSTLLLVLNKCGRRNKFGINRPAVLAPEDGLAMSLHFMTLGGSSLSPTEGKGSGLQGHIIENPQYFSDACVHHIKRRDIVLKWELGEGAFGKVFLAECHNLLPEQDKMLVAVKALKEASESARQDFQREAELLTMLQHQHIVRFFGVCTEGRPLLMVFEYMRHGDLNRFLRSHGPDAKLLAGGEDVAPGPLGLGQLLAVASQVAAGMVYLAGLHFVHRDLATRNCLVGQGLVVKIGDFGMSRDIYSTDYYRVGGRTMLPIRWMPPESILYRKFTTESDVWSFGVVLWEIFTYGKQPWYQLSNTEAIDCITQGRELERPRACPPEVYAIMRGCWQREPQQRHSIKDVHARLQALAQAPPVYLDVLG
The experiment can be described thus: Z'-LYTE kinase activity detection, TRKA. It is filed as biochemical.

For a further experiment, the target named is T3, BaF3-CD74-NTRK1 (Homo sapiens, UniProt P04629).
T3 construct: fused on or other part: P04233 (HLA class II histocompatibility antigen gamma chain)
T3 sequence (P04629 510-796 limits assumed): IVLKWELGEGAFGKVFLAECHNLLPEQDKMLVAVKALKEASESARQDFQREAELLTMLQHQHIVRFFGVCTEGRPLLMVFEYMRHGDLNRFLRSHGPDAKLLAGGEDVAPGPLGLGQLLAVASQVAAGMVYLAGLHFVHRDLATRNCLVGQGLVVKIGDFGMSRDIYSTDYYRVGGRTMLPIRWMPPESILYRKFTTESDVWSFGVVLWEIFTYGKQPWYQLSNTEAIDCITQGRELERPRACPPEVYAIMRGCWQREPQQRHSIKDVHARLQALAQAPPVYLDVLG
The experiment in a line: Cell proliferation inhibition, Ba/F3-TRKs stable strain (CCK-8). It is filed as cell-based, mouse. Conditions: 72 hours, read-out: cell viability IC50 CD74-NTRK1. An excerpt: (§1) The BaF3 cells (mouse pre-B cells) used in this experiment were purchased from the Japanese Cell Bank. All of the monoclonal stable strains, BaF3-CD74-NTRK1, BaF3-ETV6-NTRK2 and BaF3-ETV6-NTRK3 were constructed by our laboratory, and were identified by experiments such as positive control, protein expression and gene sequencing.
(§2) The brief steps of stable strain construction were as follows: constructed pCDNA3.1(+) plasmid vector carrying genes such as CD74-NTRK1, ETV6-NTRK2, ETV6-NTRK3; the plasmid was electroporated into Ba/F3 cells using Amaxa® Cell Line Nucleofector® Kit V; 48 hours after electroporation, geneticin (G418) with a final concentration of 1000 μg/mL was added to screen for two weeks, and the interleukin 3 (IL3) was removed to continue screening to obtain polyclonal stable strains; and then single clones were selected by limiting dilution method; the stable strains were then identified by the positive drugs, Western Blot (WB), and gene sequencing; the correct monoclonal through identification can be used to study the cell proliferation inhibitory activity of the inhibitors.
(§3) Cell proliferation inhibitory activity study: The cells in logarithmic growth phase were seeded into 96-well plates at 8000-12000 cells/well, and the inhibitors at different concentrations of (0-10 μM) were added the next day, and the culture was continued for 72 hours; then 10 μL of Cell Counting Kit-8 Cell Counting Reagent (CCK-8 Reagent) was added to each well, and continued to incubate for 1-3 hours; then its absorbance at 450 nm and 650 nm were measured with a super microplate reader. The median inhibitory concentration (IC50) was calculated using medical graphing software (GraphPad Prism 8.0.0).

For another experiment, the target named is T4, BaF3-ETV6-NTRK2 (Homo sapiens, UniProt Q16620).
T4 construct: fused on or other part: P41212 (Transcription factor ETV6)
T4 sequence (Q16620 538-822 limits assumed): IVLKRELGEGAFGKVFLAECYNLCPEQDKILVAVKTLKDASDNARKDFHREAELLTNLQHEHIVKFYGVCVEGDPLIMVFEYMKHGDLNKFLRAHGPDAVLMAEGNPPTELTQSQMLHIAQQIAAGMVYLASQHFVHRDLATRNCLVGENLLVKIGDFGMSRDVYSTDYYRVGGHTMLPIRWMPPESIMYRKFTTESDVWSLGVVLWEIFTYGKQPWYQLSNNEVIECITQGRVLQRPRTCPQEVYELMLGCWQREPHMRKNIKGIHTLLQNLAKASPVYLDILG
The description is as above. It is filed as cell-based, mouse. The note with it: 72 hours, read-out: cell viability IC50 ETV6-NTRK2.
Text: as §1, §2, §3

The target in the next experiment is T5, TRKC (Homo sapiens, UniProt Q16288).
T5 construct: purchased American Life Technologies PV3617
T5 sequence (Q16288 32-839): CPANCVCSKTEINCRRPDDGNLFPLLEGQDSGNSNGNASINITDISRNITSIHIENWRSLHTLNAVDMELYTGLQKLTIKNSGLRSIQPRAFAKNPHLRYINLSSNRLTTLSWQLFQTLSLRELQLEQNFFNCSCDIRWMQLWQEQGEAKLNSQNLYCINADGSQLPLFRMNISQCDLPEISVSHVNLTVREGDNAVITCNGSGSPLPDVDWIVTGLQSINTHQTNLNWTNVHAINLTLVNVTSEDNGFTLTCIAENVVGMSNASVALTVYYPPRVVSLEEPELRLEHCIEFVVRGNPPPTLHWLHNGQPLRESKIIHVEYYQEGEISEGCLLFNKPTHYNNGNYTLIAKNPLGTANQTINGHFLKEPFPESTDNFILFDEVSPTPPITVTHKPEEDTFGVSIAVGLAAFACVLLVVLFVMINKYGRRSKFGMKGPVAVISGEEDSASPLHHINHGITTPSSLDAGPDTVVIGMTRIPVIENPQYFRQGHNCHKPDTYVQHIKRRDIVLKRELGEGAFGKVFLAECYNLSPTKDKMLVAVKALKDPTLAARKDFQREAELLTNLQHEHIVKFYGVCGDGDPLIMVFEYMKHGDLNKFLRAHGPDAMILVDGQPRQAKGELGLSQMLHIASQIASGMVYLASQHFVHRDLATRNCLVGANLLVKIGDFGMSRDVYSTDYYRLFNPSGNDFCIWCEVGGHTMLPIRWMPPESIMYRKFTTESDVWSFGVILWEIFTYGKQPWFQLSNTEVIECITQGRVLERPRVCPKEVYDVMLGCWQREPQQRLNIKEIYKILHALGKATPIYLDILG
The experiment can be described thus: Z'-LYTE kinase activity detection, TRKC. The class given is biochemical.

The target in the next experiment is T6, BaF3-ETV6-NTRK3 (Homo sapiens, UniProt Q16288).
T6 construct: fused on or other part: P41212 (Transcription factor ETV6)
T6 sequence (Q16288 whole entry, the tested form may be a part): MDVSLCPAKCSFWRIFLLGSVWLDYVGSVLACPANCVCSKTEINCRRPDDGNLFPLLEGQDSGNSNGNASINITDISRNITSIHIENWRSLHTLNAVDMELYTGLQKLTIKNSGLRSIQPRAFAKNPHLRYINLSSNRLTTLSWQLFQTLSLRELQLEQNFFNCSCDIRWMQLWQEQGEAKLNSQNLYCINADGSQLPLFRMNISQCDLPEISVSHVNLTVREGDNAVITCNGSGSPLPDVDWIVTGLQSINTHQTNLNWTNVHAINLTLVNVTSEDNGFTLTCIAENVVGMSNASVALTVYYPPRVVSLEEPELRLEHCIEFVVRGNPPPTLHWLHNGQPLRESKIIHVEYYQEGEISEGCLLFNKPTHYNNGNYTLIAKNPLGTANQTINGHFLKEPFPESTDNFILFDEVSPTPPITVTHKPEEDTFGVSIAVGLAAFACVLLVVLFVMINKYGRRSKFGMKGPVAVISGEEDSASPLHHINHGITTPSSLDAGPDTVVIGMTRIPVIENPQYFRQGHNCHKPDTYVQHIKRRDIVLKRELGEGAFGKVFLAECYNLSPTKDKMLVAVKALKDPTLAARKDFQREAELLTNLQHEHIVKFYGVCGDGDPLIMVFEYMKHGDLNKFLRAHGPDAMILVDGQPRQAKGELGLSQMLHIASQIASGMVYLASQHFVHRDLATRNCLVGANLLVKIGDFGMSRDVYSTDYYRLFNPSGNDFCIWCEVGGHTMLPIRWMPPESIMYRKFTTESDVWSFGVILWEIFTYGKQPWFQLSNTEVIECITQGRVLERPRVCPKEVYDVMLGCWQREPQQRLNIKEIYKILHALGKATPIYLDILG
The experiment in a line: Cell proliferation inhibition, Ba/F3-TRKs stable strain (CCK-8). The class given is cell-based, mouse. The note with it: 72 hours, read-out: cell viability IC50 ETV6-NTRK3.
Text: as §1, §2, §3

T1 sequence (Q16620 32-822): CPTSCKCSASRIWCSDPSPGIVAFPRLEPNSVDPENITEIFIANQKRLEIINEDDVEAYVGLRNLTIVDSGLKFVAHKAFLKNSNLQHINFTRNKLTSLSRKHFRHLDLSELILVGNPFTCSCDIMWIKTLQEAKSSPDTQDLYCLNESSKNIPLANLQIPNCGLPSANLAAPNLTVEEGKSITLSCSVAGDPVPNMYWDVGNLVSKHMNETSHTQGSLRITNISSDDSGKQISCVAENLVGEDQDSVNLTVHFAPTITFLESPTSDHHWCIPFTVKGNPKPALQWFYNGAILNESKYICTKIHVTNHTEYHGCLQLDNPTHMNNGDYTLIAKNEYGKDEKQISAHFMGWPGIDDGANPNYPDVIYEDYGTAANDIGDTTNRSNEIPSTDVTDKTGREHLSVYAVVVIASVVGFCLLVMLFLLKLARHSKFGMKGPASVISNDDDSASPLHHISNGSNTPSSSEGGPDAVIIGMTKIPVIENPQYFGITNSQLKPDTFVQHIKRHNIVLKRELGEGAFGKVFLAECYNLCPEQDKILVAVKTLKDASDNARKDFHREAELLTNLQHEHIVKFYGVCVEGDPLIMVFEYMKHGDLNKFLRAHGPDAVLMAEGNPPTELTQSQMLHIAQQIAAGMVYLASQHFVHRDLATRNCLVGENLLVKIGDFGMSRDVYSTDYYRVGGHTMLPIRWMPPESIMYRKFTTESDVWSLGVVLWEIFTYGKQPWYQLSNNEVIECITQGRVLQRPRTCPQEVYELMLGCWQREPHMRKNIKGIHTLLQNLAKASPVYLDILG

Usually IC50 stands for the concentration that gives 50% inhibition. As to `Cc1c(C#Cc2cnc3cccnn23)cccc1C(=O)Nc1cccc(C(F)(F)F)c1` [XS2-106], the IC50 was over 1000 nM against TRKB, 100 to 1000 nM on TRKA, 100 to 1000 nM on BaF3-CD74-NTRK1 and 100 to 1000 nM on BaF3-ETV6-NTRK2.
For `Cc1c(C#Cc2cnc3cccnn23)cccc1C(=O)Nc1cc(F)cc(C(F)(F)F)c1` [XS2-109, N-(3-FLUORO-5-(TRIFLUOROMETHYL)PHENYL)-3-(IMIDAZO[1,2-B]PYRIDAZIN-3-YLETHYNYL)-2-METHYLBENZENE FORMAMIDE], the IC50 on TRKB was over 1000 nM; on TRKA, 100 to 1000 nM; at TRKC, 100 to 1000 nM.
For the molecule `Cc1c(C#Cc2cnc3cccnn23)cccc1C(=O)Nc1cc(Cl)cc(C(F)(F)F)c1` [XS2-112, N-(3-CHLORO-5-(TRIFLUOROMETHYL)PHENYL)-3-(IMIDAZO[1,2-B]PYRIDAZIN-3-YLETHYNYL)-2-METHYLBENZENE FORMAMIDE], the IC50 on TRKB, against TRKA, at TRKC, on BaF3-ETV6-NTRK3, at BaF3-CD74-NTRK1 and on BaF3-ETV6-NTRK2 was 100 to 1000 nM each time.
As for `Cc1c(C#Cc2cnc3ncccn23)cccc1C(=O)Nc1cc(CN2CCN(C)CC2)cc(C(F)(F)F)c1` [XS2-161], the IC50 at TRKB is over 1000 nM; against TRKA, 100 to 1000 nM; at TRKC, 100 to 1000 nM; at BaF3-ETV6-NTRK3, over 1000 nM; on BaF3-CD74-NTRK1 it was over 1000 nM; at BaF3-ETV6-NTRK2, over 1000 nM.
Turning to `Cc1c(C#Cc2cnc3ccc(N4CCOCC4)nn23)cccc1C(=O)Nc1cccc(C(F)(F)F)c1` [XS3-23, 2-METHYL-3-((6-MORPHOLINIMIDAZO[1,2-B]PYRIDAZIN-3-YL)ETHYNYL)-N-(3-(TRIFLUOROMETHYL)BENZENE BASE) BENZAMIDE], the IC50 on TRKB, on TRKA, against TRKC, on BaF3-ETV6-NTRK3, at BaF3-CD74-NTRK1 and at BaF3-ETV6-NTRK2 was 10 to 100 nM in each case.
Turning to `Cc1c(C#Cc2cnc3ccc(N4CC[C@H](O)C4)nn23)cccc1C(=O)Nc1cccc(C(F)(F)F)c1` [XS3-35, (S)-3-((6-(3-HYDROXYPYRROLIDIN-1-YL)IMIDAZO[1,2-B]PYRIDAZIN-3-YL)ETHYNYL)-2-METHYL-N-(3-(TRIFLUOROMETHYL)PHENYL)BENZAMIDE], the IC50 against TRKB is 10 to 100 nM; against TRKA, under 10 nM; at TRKC it was under 10 nM; on BaF3-ETV6-NTRK3 it was 10 to 100 nM; at BaF3-CD74-NTRK1, 10 to 100 nM; at BaF3-ETV6-NTRK2, 100 to 1000 nM.
`Cc1c(C#Cc2cnc3ccc(N4CCOCC4)nn23)cccc1C(=O)Nc1cc(Cl)cc(C(F)(F)F)c1` [XS3-61, N-(3-CHLORO-5-(TRIFLUOROMETHYL)PHENYL)-2-METHYL-3-((6-MORPHOLINIMIDAZO[1,2-B]PYRIDAZINE-3-YL)ETHYNYL)BENZAMIDE]: the IC50 on TRKB, against TRKA, at TRKC, on BaF3-ETV6-NTRK3 and on BaF3-CD74-NTRK1 was 10 to 100 nM each time.
As for `Cc1c(C#Cc2cnc3ccc(N4CCOCC4)nn23)cccc1C(=O)Nc1cc(F)cc(C(F)(F)F)c1` [XS4-80], the IC50 against TRKA, at TRKC, on BaF3-ETV6-NTRK3, on BaF3-CD74-NTRK1 and at BaF3-ETV6-NTRK2 was 10 to 100 nM each time.
Take `Cc1cc(NC(=O)c2cccc(C#Cc3cnc4ccc(N5CCOCC5)nn34)c2C)cc(C(F)(F)F)c1` [XS4-81]: the IC50 was 10 to 100 nM at TRKA; 10 to 100 nM against TRKC; under 10 nM at BaF3-ETV6-NTRK3; 10 to 100 nM at BaF3-CD74-NTRK1; 10 to 100 nM on BaF3-ETV6-NTRK2.
